Test results taken from ChEMBL document CHEMBL4507292 (2021).

What was measured:
[1] = target: AP2-associated protein kinase 1 (Homo sapiens) (UniProt Q2M2I8); conditions: Compound concentration 1000.0 nM
[2] = system: Tyrosine-protein kinase ABL1 (Homo sapiens), P00519 [Q252H]; conditions: Compound concentration 1000.0 nM
[3] = target: Tyrosine-protein kinase ABL1 (Homo sapiens) (UniProt P00519); conditions: Compound concentration 1000.0 nM
[4] = target: RAC-beta serine/threonine-protein kinase (Homo sapiens) (UniProt P31751); conditions: Compound concentration 1000.0 nM
[5] = target: Cytoplasmic tyrosine-protein kinase BMX (Homo sapiens) (UniProt P51813); conditions: Compound concentration 1000.0 nM
[6] = target: Serine/threonine-protein kinase B-raf (Homo sapiens) (UniProt P15056); conditions: Compound concentration 1000.0 nM
Serine/threonine-protein kinase B-raf (Homo sapiens), sequence (P15056 whole entry): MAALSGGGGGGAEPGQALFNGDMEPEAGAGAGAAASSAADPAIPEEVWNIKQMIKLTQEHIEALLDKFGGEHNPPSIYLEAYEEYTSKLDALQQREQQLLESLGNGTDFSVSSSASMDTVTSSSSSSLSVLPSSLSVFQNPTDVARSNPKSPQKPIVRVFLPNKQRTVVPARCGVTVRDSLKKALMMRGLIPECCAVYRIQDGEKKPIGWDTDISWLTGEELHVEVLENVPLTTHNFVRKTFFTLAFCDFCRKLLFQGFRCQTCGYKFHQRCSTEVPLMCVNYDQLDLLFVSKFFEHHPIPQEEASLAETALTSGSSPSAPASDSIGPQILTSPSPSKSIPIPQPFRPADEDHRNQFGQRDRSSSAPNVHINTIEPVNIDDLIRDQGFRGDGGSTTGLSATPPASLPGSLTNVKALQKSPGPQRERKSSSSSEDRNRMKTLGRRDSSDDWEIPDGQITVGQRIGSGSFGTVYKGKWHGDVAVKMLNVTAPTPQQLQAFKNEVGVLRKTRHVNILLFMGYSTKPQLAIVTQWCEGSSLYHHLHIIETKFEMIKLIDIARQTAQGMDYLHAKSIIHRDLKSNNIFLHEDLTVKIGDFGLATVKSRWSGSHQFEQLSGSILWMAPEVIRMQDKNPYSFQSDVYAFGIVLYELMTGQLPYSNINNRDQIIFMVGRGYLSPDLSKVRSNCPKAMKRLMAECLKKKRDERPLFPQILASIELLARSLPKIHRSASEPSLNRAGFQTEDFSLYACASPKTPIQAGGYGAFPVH

[7] = target: Calcium/calmodulin-dependent protein kinase kinase 1 (Homo sapiens) (UniProt Q8N5S9); conditions: Compound concentration 1000.0 nM
Calcium/calmodulin-dependent protein kinase kinase 1 (Homo sapiens), sequence (Q8N5S9 whole entry, looked up): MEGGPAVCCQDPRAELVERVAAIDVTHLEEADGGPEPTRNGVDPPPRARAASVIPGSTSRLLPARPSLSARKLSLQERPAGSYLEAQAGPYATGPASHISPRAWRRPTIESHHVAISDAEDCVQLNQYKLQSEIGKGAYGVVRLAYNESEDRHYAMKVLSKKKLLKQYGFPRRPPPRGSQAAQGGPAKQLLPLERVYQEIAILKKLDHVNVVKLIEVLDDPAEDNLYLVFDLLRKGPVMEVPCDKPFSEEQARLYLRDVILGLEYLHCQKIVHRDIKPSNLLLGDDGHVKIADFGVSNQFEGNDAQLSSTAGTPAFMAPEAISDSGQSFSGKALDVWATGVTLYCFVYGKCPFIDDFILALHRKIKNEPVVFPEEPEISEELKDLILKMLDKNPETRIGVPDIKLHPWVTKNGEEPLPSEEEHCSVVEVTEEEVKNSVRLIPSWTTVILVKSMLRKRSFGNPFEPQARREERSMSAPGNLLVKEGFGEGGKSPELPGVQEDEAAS

[8] = target: Cyclin-dependent kinase 4 (Homo sapiens) (UniProt P11802); conditions: Compound concentration 1000.0 nM
Cyclin-dependent kinase 4 (Homo sapiens), sequence (P11802 whole entry): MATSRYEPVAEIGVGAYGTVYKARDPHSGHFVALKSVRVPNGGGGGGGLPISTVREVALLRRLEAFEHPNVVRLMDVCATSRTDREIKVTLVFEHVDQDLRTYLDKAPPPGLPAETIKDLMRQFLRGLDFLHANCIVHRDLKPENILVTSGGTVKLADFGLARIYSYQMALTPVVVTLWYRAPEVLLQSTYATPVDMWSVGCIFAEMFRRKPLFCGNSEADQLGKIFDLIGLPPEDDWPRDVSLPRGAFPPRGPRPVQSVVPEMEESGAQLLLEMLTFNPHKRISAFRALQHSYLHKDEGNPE

[9] = target: Cyclin-dependent kinase 8 (Homo sapiens) (UniProt P49336); conditions: Compound concentration 1000.0 nM
[10] = target: Cyclin-dependent kinase-like 1 (Homo sapiens) (UniProt Q00532); conditions: Compound concentration 1000.0 nM
[11] = target: Cyclin-dependent kinase-like 5 (Homo sapiens) (UniProt O76039); conditions: Compound concentration 1000.0 nM
[12] = target: Serine/threonine-protein kinase Chk1 (Homo sapiens) (UniProt O14757); conditions: Compound concentration 1000.0 nM
[13] = target: Dual specificity protein kinase CLK4 (Homo sapiens) (UniProt Q9HAZ1); conditions: Compound concentration 1000.0 nM
Dual specificity protein kinase CLK4 (Homo sapiens), sequence (Q9HAZ1 whole entry, looked up, canonical isoform): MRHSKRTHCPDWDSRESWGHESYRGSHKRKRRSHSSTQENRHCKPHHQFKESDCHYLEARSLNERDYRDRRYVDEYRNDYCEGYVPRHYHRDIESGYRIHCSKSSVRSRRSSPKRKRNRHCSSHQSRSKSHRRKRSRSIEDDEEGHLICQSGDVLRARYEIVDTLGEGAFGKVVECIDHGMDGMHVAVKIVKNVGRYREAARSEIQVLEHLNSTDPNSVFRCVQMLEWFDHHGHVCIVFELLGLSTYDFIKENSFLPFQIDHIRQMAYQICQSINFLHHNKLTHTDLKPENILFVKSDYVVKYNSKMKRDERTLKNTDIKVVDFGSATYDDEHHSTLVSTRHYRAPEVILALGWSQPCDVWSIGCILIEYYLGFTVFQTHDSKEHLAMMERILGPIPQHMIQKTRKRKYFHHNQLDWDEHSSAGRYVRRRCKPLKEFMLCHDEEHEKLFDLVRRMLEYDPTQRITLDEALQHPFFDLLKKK

[14] = target: Casein kinase I isoform epsilon (Homo sapiens) (UniProt P49674); conditions: Compound concentration 1000.0 nM
[15] = system: Epidermal growth factor receptor (Homo sapiens), P00533 [UNDEFINED MUTATION]; conditions: Compound concentration 1000.0 nM
[16] = system: Epidermal growth factor receptor (Homo sapiens), P00533 [L858R,T790M]; conditions: Compound concentration 1000.0 nM
[17] = system: Epidermal growth factor receptor (Homo sapiens), P00533 [T790M]; conditions: Compound concentration 1000.0 nM
[18] = system: Receptor-type tyrosine-protein kinase FLT3 (Homo sapiens), P36888 [D835Y]; conditions: Compound concentration 1000.0 nM
[19] = system: Receptor-type tyrosine-protein kinase FLT3 (Homo sapiens), P36888 [UNDEFINED MUTATION]; conditions: Compound concentration 1000.0 nM
[20] = target: Tyrosine-protein kinase Fyn (Homo sapiens) (UniProt P06241); conditions: Compound concentration 1000.0 nM
[21] = target: Tyrosine-protein kinase JAK3 (Homo sapiens) (UniProt P52333); conditions: Compound concentration 1000.0 nM
[22] = target: Serine/threonine-protein kinase LATS1 (Homo sapiens) (UniProt O95835); conditions: Compound concentration 1000.0 nM
[23] = target: Leucine-rich repeat serine/threonine-protein kinase 2 (Homo sapiens) (UniProt Q5S007); conditions: Compound concentration 1000.0 nM
[24] = system: Leucine-rich repeat serine/threonine-protein kinase 2 (Homo sapiens), Q5S007 [G2019S]; conditions: Compound concentration 1000.0 nM
[25] = target: MAP kinase-activated protein kinase 5 (Homo sapiens) (UniProt Q8IW41); conditions: Compound concentration 1000.0 nM
[26] = target: Serine/threonine-protein kinase MARK1 (Homo sapiens) (UniProt Q9P0L2); conditions: Compound concentration 1000.0 nM
[27] = target: Dual specificity mitogen-activated protein kinase kinase 5 (Homo sapiens) (UniProt Q13163); conditions: Compound concentration 1000.0 nM
Dual specificity mitogen-activated protein kinase kinase 5 (Homo sapiens), sequence (Q13163 whole entry): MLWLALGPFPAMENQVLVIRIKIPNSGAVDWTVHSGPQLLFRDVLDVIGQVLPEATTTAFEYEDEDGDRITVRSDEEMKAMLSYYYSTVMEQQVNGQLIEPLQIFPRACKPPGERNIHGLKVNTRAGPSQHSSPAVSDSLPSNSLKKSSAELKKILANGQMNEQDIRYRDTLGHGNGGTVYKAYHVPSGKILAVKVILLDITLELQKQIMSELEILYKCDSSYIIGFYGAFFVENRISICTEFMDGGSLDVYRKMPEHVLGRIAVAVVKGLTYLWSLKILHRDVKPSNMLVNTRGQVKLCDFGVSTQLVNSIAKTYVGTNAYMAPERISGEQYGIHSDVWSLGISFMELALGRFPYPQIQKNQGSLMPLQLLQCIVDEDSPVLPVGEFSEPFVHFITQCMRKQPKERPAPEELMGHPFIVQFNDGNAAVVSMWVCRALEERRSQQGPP

[28] = target: MAP kinase-interacting serine/threonine-protein kinase 1 (Homo sapiens) (UniProt Q9BUB5); conditions: Compound concentration 1000.0 nM
MAP kinase-interacting serine/threonine-protein kinase 1 (Homo sapiens), sequence (Q9BUB5 whole entry, looked up): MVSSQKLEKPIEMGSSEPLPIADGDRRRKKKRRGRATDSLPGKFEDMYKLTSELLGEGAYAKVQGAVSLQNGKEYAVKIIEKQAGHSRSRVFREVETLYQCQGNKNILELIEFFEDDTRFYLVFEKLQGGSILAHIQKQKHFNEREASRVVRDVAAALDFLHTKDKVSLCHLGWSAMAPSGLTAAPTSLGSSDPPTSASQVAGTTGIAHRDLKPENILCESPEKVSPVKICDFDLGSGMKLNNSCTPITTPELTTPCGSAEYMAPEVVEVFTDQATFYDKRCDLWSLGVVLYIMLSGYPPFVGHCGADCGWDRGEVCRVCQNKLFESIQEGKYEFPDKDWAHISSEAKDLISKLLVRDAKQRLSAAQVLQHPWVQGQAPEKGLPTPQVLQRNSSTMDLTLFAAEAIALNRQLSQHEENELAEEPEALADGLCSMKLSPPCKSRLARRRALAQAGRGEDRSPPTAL

[29] = target: Serine/threonine-protein kinase 26 (Homo sapiens) (UniProt Q9P289); conditions: Compound concentration 1000.0 nM
[30] = target: Serine/threonine-protein kinase 38 (Homo sapiens) (UniProt Q15208); conditions: Compound concentration 1000.0 nM
[31] = target: Mitogen-activated protein kinase kinase kinase 14 (Homo sapiens) (UniProt Q99558); conditions: Compound concentration 1000.0 nM
[32] = target: Mitogen-activated protein kinase 11 (Homo sapiens) (UniProt Q15759); conditions: Compound concentration 1000.0 nM
[33] = target: Serine/threonine-protein kinase PAK 6 (Homo sapiens) (UniProt Q9NQU5); conditions: Compound concentration 1000.0 nM
[34] = target: Cyclin-dependent kinase 15 (Homo sapiens) (UniProt Q96Q40); conditions: Compound concentration 1000.0 nM
Cyclin-dependent kinase 15 (Homo sapiens), sequence (Q96Q40 whole entry, canonical isoform): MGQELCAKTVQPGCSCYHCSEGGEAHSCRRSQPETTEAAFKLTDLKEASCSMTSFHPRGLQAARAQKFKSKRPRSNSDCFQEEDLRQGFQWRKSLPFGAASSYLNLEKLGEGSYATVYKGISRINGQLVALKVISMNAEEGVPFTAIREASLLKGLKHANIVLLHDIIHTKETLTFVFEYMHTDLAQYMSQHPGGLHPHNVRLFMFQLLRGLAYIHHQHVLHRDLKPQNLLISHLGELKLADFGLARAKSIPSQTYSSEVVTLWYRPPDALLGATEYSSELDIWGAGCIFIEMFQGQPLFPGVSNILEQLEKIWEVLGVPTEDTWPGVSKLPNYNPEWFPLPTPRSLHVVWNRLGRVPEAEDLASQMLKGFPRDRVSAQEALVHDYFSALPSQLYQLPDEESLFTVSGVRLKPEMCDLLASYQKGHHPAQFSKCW

[35] = system: Phosphatidylinositol 4,5-bisphosphate 3-kinase catalytic subunit alpha isoform (Homo sapiens), P42336 [Q546K]; conditions: Compound concentration 1000.0 nM
Phosphatidylinositol 4,5-bisphosphate 3-kinase catalytic subunit alpha isoform (Homo sapiens), P42336 [Q546K], sequence (P42336 whole entry Q546K, canonical isoform): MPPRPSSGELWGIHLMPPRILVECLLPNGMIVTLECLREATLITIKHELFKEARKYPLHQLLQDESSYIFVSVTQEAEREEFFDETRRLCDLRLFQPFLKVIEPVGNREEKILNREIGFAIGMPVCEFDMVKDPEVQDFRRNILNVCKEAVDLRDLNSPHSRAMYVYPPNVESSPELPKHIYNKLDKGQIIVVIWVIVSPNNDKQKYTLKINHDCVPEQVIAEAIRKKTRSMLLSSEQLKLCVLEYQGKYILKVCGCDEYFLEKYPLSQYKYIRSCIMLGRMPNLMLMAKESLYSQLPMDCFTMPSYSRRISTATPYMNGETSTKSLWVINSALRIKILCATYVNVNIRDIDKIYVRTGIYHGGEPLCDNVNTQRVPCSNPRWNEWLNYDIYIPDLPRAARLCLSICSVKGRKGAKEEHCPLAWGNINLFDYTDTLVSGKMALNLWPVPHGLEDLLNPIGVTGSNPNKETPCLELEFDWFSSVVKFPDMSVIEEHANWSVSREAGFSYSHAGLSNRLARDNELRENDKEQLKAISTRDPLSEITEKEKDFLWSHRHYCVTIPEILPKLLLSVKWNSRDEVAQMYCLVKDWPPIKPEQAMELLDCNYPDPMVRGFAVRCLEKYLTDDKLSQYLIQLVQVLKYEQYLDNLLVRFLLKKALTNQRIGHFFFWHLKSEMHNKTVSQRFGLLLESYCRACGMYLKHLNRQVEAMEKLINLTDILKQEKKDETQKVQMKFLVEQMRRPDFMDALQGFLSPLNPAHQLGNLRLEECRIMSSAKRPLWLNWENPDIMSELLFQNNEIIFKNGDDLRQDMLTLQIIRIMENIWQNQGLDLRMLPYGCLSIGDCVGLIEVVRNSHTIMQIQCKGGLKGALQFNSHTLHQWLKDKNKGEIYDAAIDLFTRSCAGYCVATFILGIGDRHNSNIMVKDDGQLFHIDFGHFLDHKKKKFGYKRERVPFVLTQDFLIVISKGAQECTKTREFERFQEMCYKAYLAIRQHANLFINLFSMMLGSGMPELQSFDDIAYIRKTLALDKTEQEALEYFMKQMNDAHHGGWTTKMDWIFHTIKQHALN

[36] = target: 1-phosphatidylinositol 3-phosphate 5-kinase (Homo sapiens) (UniProt Q9Y2I7); conditions: Compound concentration 1000.0 nM
[37] = target: Serine/threonine-protein kinase TBK1 (Homo sapiens) (UniProt Q9UHD2); conditions: Compound concentration 1000.0 nM
[38] = target: Non-receptor tyrosine-protein kinase TYK2 (Homo sapiens) (UniProt P29597); conditions: Compound concentration 1000.0 nM
[39] = target: Vascular endothelial growth factor receptor 2 (Homo sapiens) (UniProt P35968); conditions: Compound concentration 1000.0 nM
[40] = target: Wee1-like protein kinase 2 (Homo sapiens) (UniProt P0C1S8); conditions: Compound concentration 1000.0 nM
[41] = target: Serine/threonine-protein kinase WNK1 (Homo sapiens) (UniProt Q9H4A3); conditions: Compound concentration 1000.0 nM
[42] = target: Mitogen-activated protein kinase kinase kinase 19 (Homo sapiens) (UniProt Q56UN5); conditions: Compound concentration 1000.0 nM
[43] = target: Mitogen-activated protein kinase kinase kinase 20 (Homo sapiens) (UniProt Q9NYL2); conditions: Compound concentration 1000.0 nM
[44] = target: Histamine H1 receptor (Homo sapiens) (UniProt P35367); conditions: Compound concentration 10.0 uM
Histamine H1 receptor (Homo sapiens), sequence (P35367 whole entry): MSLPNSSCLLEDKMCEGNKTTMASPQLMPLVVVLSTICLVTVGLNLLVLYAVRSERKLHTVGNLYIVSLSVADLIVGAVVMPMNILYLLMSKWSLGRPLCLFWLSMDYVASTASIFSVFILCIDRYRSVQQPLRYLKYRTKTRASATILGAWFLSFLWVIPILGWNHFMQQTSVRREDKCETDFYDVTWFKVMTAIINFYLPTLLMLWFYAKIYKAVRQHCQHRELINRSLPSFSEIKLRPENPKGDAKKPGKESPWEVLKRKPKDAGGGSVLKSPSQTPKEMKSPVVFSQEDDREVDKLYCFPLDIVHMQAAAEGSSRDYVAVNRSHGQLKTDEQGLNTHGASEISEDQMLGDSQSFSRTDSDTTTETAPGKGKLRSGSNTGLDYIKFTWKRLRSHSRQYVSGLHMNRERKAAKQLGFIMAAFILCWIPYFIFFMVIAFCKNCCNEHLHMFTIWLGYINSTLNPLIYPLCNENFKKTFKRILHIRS

[45] = target: Muscarinic acetylcholine receptor M1 (Homo sapiens) (UniProt P11229); conditions: Compound concentration 10.0 uM

Cc1c(C(=O)O)cc(-c2ccc(C3CCNCC3)cc2)c2ccc(-c3ccc(C(F)(F)F)cc3)cc12 [PPTN-NC]
inactive: residual activity [1] 100% | residual activity [2] 100% | residual activity [3] 82% | residual activity [4] 100% | residual activity [5] 100% | residual activity [6] 100% | residual activity [7] 100% | residual activity [8] 100% | residual activity [9] 100% | residual activity [10] 82% | residual activity [11] 100% | residual activity [12] 100% | residual activity [13] 100% | residual activity [14] 96% | residual activity [15] 100% | residual activity [16] 100% | residual activity [17] 87% | residual activity [18] 100% | residual activity [19] 100% | residual activity [20] 100% | residual activity [21] 100% | residual activity [22] 86% | residual activity [23] 100% | residual activity [24] 100% | residual activity [25] 100% | residual activity [26] 100% | residual activity [27] 100% | residual activity [28] 100% | residual activity [29] 100% | residual activity [30] 84% | residual activity [31] 100% | residual activity [32] 100% | residual activity [33] 100% | residual activity [34] 100% | residual activity [35] 100% | residual activity [36] 100% | residual activity [37] 73% | residual activity [38] 100% | residual activity [39] 100% | residual activity [40] 100% | residual activity [41] 100% | residual activity [42] 100% | residual activity [43] 100% | inhibition [44] 12.6% | inhibition [45] 7.22%

O=C(O)c1cc(-c2ccc(C3CCNCC3)cc2)c2ccc(-c3ccc(C(F)(F)F)cc3)cc2c1 [PPTN]
inactive: residual activity [1] 100% | residual activity [2] 90% | residual activity [3] 75% | residual activity [4] 95% | residual activity [5] 100% | residual activity [6] 100% | residual activity [7] 100% | residual activity [8] 100% | residual activity [9] 100% | residual activity [10] 93% | residual activity [11] 100% | residual activity [12] 100% | residual activity [13] 100% | residual activity [14] 100% | residual activity [15] 100% | residual activity [16] 100% | residual activity [17] 96% | residual activity [18] 100% | residual activity [19] 100% | residual activity [20] 100% | residual activity [21] 100% | residual activity [22] 88% | residual activity [23] 100% | residual activity [24] 100% | residual activity [25] 100% | residual activity [26] 100% | residual activity [27] 96% | residual activity [28] 100% | residual activity [29] 100% | residual activity [30] 83% | residual activity [31] 100% | residual activity [32] 100% | residual activity [33] 100% | residual activity [34] 96% | residual activity [35] 100% | residual activity [36] 100% | residual activity [37] 80% | residual activity [38] 100% | residual activity [39] 100% | residual activity [40] 100% | residual activity [41] 100% | residual activity [42] 100% | residual activity [43] 100% | inhibition [44] 21.6% | inhibition [45] 4.16%
